In brackets after ≈: the same amount, converted by molar mass.
Columns and labels:
[1] = tested on: Candida albicans; assay: Antimicrobial activity, serial dilution method (Glucose nutrient agar); format: cell-based; conditions: IFO 0583
Description: (§1) The antimicrobial activities of Antibiotics C-14919 E-1 and E-2 were assayed by the serial dilution method using Trypticase-soy agar (BBL), glucose nutrient agar and glycerol nutrient agar as test media (Table 5). In addition, the activities against Tetrahymena pyriformis W were determined by the serial dilution method using the assay medium [Proteose-peptone 20 g, yeast extract 1 g, glucose 2 g, distilled water 1000 ml, 1 M-phosphate buffer (pH 7.0) 10 ml].
(§2) **Glucose nutrient agar

[2] = Acute toxicity test in mice; format: in vivo; conditions: intraperitoneal administration
Excerpt: The assumed LD50 as determined by intraperitoneal administration of C-14919 E-1 and E-2 in an acute toxicity test using mice as test animals are as follows.

[3] = tested on: Mycobacterium avium; assay: Antimicrobial activity, serial dilution method; format: cell-based; conditions: Glycerol nutrient agar
Description: as §1
(§3) ***Glycerol nutrient agar

[4] = tested on: Mycobacterium phlei; assay: Antimicrobial activity, serial dilution method; format: cell-based; conditions: Glycerol nutrient agar
Description: as §1, §3

[5] = tested on: Tetrahymena pyriformis W; assay: Activity against Tetrahymena pyriformis W, serial dilution method; format: cell-based; conditions: Proteose-peptone solution, pH 7.0
Description: as §1
****Proteose-peptone solution

[6] = tested on: Penicillium chrysogenum; assay: Antimicrobial activity, serial dilution method; format: cell-based; conditions: IFO 4626; Glucose nutrient agar
Description: as §1, §2

[7] = tested on: Candida; assay: Antimicrobial activity, serial dilution method; format: cell-based; conditions: IFO 1396; Glucose nutrient agar
Description: as §1, §2

[8] = tested on: Trychophyton rubrum; assay: Antimicrobial activity, serial dilution method; format: cell-based; conditions: IFO 5467; Glucose nutrient agar
Description: as §1, §2

[9] = tested on: Candida krusei; assay: Antimicrobial activity, serial dilution method; format: cell-based; conditions: IFO 1395; Glucose nutrient agar
Description: as §1, §2

[10] = tested on: Candida tropicalis; assay: Antimicrobial activity, serial dilution method; format: cell-based; conditions: IFO 1400; Glucose nutrient agar
Description: as §1, §2

[11] = tested on: Hormodendrum pedrosoi; assay: Antimicrobial activity, serial dilution method; format: cell-based; conditions: IFO 6071; Glucose nutrient agar
Description: as §1, §2

[12] = tested on: Saccharomyces cerevisiae; assay: Antimicrobial activity, serial dilution method; format: cell-based; conditions: IFO 0209; Glucose nutrient agar
Description: as §1, §2

[13] = tested on: Microsporum canis; assay: Antimicrobial activity, serial dilution method; format: cell-based; conditions: IFO 7863; Glucose nutrient agar
Description: as §1, §2

[14] = tested on: Microsporum cookei; assay: Antimicrobial activity, serial dilution method; format: cell-based; conditions: IFO 8303; Glucose nutrient agar
Description: as §1, §2

[15] = tested on: Aspergillus niger; assay: Antimicrobial activity, serial dilution method; format: cell-based; conditions: IFO 4066; Glucose nutrient agar
Description: as §1, §2

[16] = tested on: Candida pseudotropicalis; assay: Antimicrobial activity, serial dilution method; format: cell-based; conditions: IFO 0617; Glucose nutrient agar
Description: as §1, §2

[17] = tested on: Candida utilis; assay: Antimicrobial activity, serial dilution method; format: cell-based; conditions: IFO 0619; Glucose nutrient agar
Description: as §1, §2

[18] = tested on: Cryptococcus neoformans; assay: Antimicrobial activity, serial dilution method; format: cell-based; conditions: IFO 0410; Glucose nutrient agar
Description: as §1, §2

[19] = tested on: P388 leukemia; assay: Therapeutic activity against P388 leukemia in mice; format: in vivo; conditions: for antitumour activity in terms of the extension of life spans: 5 mg/kg/day, intraperitoneally, consecutive days, P388 1×10^6 cells/animal i.p. transplanted; for life-extending effect upon tumour-bearing mammals: e.g. mouse
Description: The therapeutic activity (intraperitoneally administered for a consecutive days) of C-14919 E-1 and E-2 against P388 leukemia in mice (1×10^6 cells/animal, mouse, itraperitoneally transplanted) was investigated. The antitumour activity in terms of the extension of life spans was 144% at the dose level of 5 mg/kg/day.

[20] = tested on: Gram-positive bacteria, fungi and yeasts; assay: Antimicrobial spectrum (summary of Table 5); format: cell-based; conditions: antimicrobial spectrum of Table 5
Description: as §1

[21] = Solubility; format: physicochemical
[22] = tested on: Proteus vulgaris; assay: Antimicrobial activity, serial dilution method; format: cell-based; conditions: IFO 3045; Trypticase-soy agar
Description: as §1

[23] = tested on: Alcaligenes faecalis; assay: Antimicrobial activity, serial dilution method; format: cell-based; conditions: IFO 13111; Trypticase-soy agar
Description: as §1

[24] = tested on: Bacillus brevis; assay: Antimicrobial activity, serial dilution method; format: cell-based; conditions: IFO 3331; Trypticase-soy agar
Description: as §1

[25] = tested on: Staphylococcus aureus 209P; assay: Antimicrobial activity, serial dilution method; format: cell-based; conditions: IFO 12732; Trypticase-soy agar
Description: as §1

[26] = tested on: Escherichia coli K-12; assay: Antimicrobial activity, serial dilution method; format: cell-based; conditions: IFO 3301; Trypticase-soy agar
Description: as §1

[27] = tested on: Salmonella typhimurium; assay: Antimicrobial activity, serial dilution method; format: cell-based; conditions: IFO 12529; Trypticase-soy agar
Description: as §1

[28] = tested on: Bacillus megaterium; assay: Antimicrobial activity, serial dilution method; format: cell-based; conditions: IFO 12108; Trypticase-soy agar
Description: as §1

[29] = tested on: Sarcina lutea; assay: Antimicrobial activity, serial dilution method; format: cell-based; conditions: IFO 3232; Trypticase-soy agar
Description: as §1

[30] = tested on: Bacillus subtilis PCI219; assay: Antimicrobial activity, serial dilution method; format: cell-based; conditions: IFO 3513; Trypticase-soy agar
Description: as §1

[31] = tested on: Pseudomonas aeruginosa; assay: Antimicrobial activity, serial dilution method; format: cell-based; conditions: IFO 3080; Trypticase-soy agar
Description: as §1

[32] = tested on: Serratia marcescens; assay: Antimicrobial activity, serial dilution method; format: cell-based; conditions: IFO 3046; Trypticase-soy agar
Description: as §1

[33] = tested on: Bacillus pumilus; assay: Antimicrobial activity, serial dilution method; format: cell-based; conditions: IFO 3813; Trypticase-soy agar
Description: as §1

[34] = tested on: Micrococcus flavus; assay: Antimicrobial activity, serial dilution method; format: cell-based; conditions: IFO 3242; Trypticase-soy agar
Description: as §1

[35] = tested on: Bacillus cereus; assay: Antimicrobial activity, serial dilution method; format: cell-based; conditions: IFO 3514; Trypticase-soy agar
Description: as §1

[36] = tested on: Bacillus subtilis 6633; assay: Antimicrobial activity, serial dilution method; format: cell-based; conditions: IFO 3134; Trypticase-soy agar
Description: as §1

[37] = Stability in solution; format: physicochemical
[38] = Acid, neutral or basic nature / lipophilicity; format: physicochemical
[39] = tested on: Candida albicans; assay: Antimicrobial activity, serial dilution method (Trypticase-soy agar); format: cell-based; conditions: IFO 0583
Description: as §1

[40] = Room temp., basic solution/conditions
[41] = Room temp., neutral and weakly acidic solutions/conditions

## COC1CC(C)C(OC)c2cc(O)cc(c2O)NC(=O)/C(C)=C/C=C\C(C)C(OC(N)=O)/C(C)=C/C(C)C1OC (centres unmarked) [C-14919 E-2]
[1]
  MIC: 25 µg/mL (≈ 44.6 µM)
[2]
  assumed LD50: 25 to 100 mg/kg
[3]
  MIC: > 100 µg/mL
[4]
  MIC: > 100 µg/mL
[5]
  MIC: 10 µg/mL (≈ 17.8 µM)
[6]
  MIC: 25 µg/mL (≈ 44.6 µM)
[7]
  MIC: 25 µg/mL (≈ 44.6 µM)
[8]
  MIC: > 100 µg/mL
[9]
  MIC: > 100 µg/mL
[10]
  MIC: > 100 µg/mL
[11]
  MIC: > 100 µg/mL
[12]
  MIC: 100 µg/mL (≈ 178 µM)
[13]
  MIC: > 100 µg/mL
[14]
  MIC: > 100 µg/mL
[15]
  MIC: 100 µg/mL (≈ 178 µM)
[16]
  MIC: 100 µg/mL (≈ 178 µM)
[17]
  MIC: > 100 µg/mL
[18]
  MIC: > 100 µg/mL
[19]
  antitumour activity in terms of the extension of life spans: 144%
  life-extending effect upon tumour-bearing mammals: life-extending effect
[20]
  antimicrobial activity: display activity against Gram-positive bacteria, fungi and yeasts
[21]
  Solubility in acetone: Soluble
  Solubility in benzene: Sparingly soluble
  Solubility in butanol: Soluble
  Solubility in chloroform: Sparingly soluble
  Solubility in diethyl ether: Sparingly soluble
  Solubility in dimethylsulfoxide: Readily soluble
  Solubility in ethanol: Soluble
  Solubility in ethyl acetate: Soluble
  Solubility in hexane: Insoluble
  Solubility in methanol: Soluble
  Solubility in methyl isobutyl ketone: Soluble
  Solubility in petroleum ether: Insoluble
  Solubility in water: Sparingly soluble
[22]
  MIC: > 100 µg/mL
[23]
  MIC: 100 µg/mL (≈ 178 µM)
[24]
  MIC: 50 µg/mL (≈ 89.2 µM)
[25]
  MIC: > 100 µg/mL
[26]
  MIC: > 100 µg/mL
[27]
  MIC: > 100 µg/mL
[28]
  MIC: 50 µg/mL (≈ 89.2 µM)
[29]
  MIC: 50 µg/mL (≈ 89.2 µM)
[30]
  MIC: > 100 µg/mL
[31]
  MIC: > 100 µg/mL
[32]
  MIC: > 100 µg/mL
[33]
  MIC: 100 µg/mL (≈ 178 µM)
[34]
  MIC: 50 µg/mL (≈ 89.2 µM)
[35]
  MIC: > 100 µg/mL
[36]
  MIC: 100 µg/mL (≈ 178 µM)
[37]; 80° C., 1 hr.
  Stability: unstable
[37]; [40]
  Stability: Unstable
[37]; [41]
  Stability: Stable
[38]
  Acid, neutral or basic: a neutral substance
  lipophilicity: lipophyl
[39]
  MIC: 6.25 µg/mL (≈ 11.1 µM)

## COC1C[C@H](C)[C@@H](OC)C2=CC(=O)C=C(NC(=O)/C(C)=C/C=C\[C@H](C)C(OC(N)=O)/C(C)=C/[C@@H](C)[C@@H]1OC)C2=O (some centres unmarked) [C-14919 E-1]
[1]
  MIC: 50 µg/mL (≈ 89.5 µM)
[2]
  assumed LD50: 50 to 100 mg/kg
[3]
  MIC: > 100 µg/mL
[4]
  MIC: > 100 µg/mL
[5]
  MIC: 10 µg/mL (≈ 17.9 µM)
[6]
  MIC: 50 µg/mL (≈ 89.5 µM)
[7]
  MIC: 50 µg/mL (≈ 89.5 µM)
[8]
  MIC: > 100 µg/mL
[9]
  MIC: > 100 µg/mL
[10]
  MIC: > 100 µg/mL
[11]
  MIC: > 100 µg/mL
[12]
  MIC: 100 µg/mL (≈ 179 µM)
[13]
  MIC: > 100 µg/mL
[14]
  MIC: > 100 µg/mL
[15]
  MIC: 100 µg/mL (≈ 179 µM)
[16]
  MIC: 100 µg/mL (≈ 179 µM)
[17]
  MIC: > 100 µg/mL
[18]
  MIC: > 100 µg/mL
[19]
  antitumour activity in terms of the extension of life spans: 144%
  life-extending effect upon tumour-bearing mammals: life-extending effect
[20]
  antimicrobial activity: display activity against Gram-positive bacteria, fungi and yeasts
[21]
  Solubility in acetone: Soluble
  Solubility in benzene: Sparingly soluble
  Solubility in butanol: Soluble
  Solubility in chloroform: Soluble
  Solubility in diethyl ether: Sparingly soluble
  Solubility in dimethylsulfoxide: Readily soluble
  Solubility in ethanol: Soluble
  Solubility in ethyl acetate: Soluble
  Solubility in hexane: Insoluble
  Solubility in methanol: Soluble
  Solubility in methyl isobutyl ketone: Soluble
  Solubility in petroleum ether: Insoluble
  Solubility in water: Insoluble
[22]
  MIC: > 100 µg/mL
[23]
  MIC: > 100 µg/mL
[24]
  MIC: 50 µg/mL (≈ 89.5 µM)
[25]
  MIC: > 100 µg/mL
[26]
  MIC: > 100 µg/mL
[27]
  MIC: > 100 µg/mL
[28]
  MIC: 50 µg/mL (≈ 89.5 µM)
[29]
  MIC: 50 µg/mL (≈ 89.5 µM)
[30]
  MIC: 100 µg/mL (≈ 179 µM)
[31]
  MIC: > 100 µg/mL
[32]
  MIC: > 100 µg/mL
[33]
  MIC: 50 µg/mL (≈ 89.5 µM)
[34]
  MIC: 50 µg/mL (≈ 89.5 µM)
[35]
  MIC: > 100 µg/mL
[36]
  MIC: 50 µg/mL (≈ 89.5 µM)
[37]; 80° C., 1 hr.
  Stability: unstable
[37]; [40]
  Stability: Unstable
[37]; [41]
  Stability: Stable
[38]
  Acid, neutral or basic: a neutral substance
  lipophilicity: lipophyl
[39]
  MIC: 25 µg/mL (≈ 44.7 µM)

From patent US4187292A, “Antibiotics produced from the microorganism nocardice” (Takeda Chemical Industries, Ltd., priority 1977, dated 1980)
